Measured values reported in patent publication US5075322A, “Selenophen derivatives, a preparation process of the same and therapeutical compositions containing them” (Societe de Conseils de Recherches et d'Applications …, priority 1989, dated 1991).

How the values were obtained:
[1] = test system: ovalbumine-induced bronchospasm; experiment: ovalbumine-induced bronchoconstriction in passively sensitized rats; format: in vivo; conditions: Table IV, 5 mg/kg PO
From the text: (§1) The different symbols NS, *, ** and *** which may be found in the different tables, mean that the result is respectively not significative, significative, very significative and highly significative.

[2] = test system: B.S.A.-induced immune lethality in mice; experiment: B.S.A.-induced immune lethality (anaphylactic shock) in actively sensitized mice; format: in vivo
From the text: as §1
At the same dose, ketotifen has no effect.

| SMILES | Percentage of bronchoconstriction [1] | Percentage of effect [1] | Mortality at 24 hours, % of mortality ([2]; 2.5 mg/kg PO) | Mortality at 24 hours, % of variation ([2]; 2.5 mg/kg PO) | Mortality at 24 hours, number of killed ([2]; 2.5 mg/kg PO) | Mortality at 24 hours, % of mortality ([2]; 10 mg/kg PO) | Mortality at 24 hours, % of variation ([2]; 10 mg/kg PO) | Mortality at 24 hours, number of killed ([2]; 10 mg/kg PO) |
| --- | --- | --- | --- | --- | --- | --- | --- | --- |
| COc1ccc(CCN2CCC(Nc3nc4ccccc4n3Cc3ccc(F)cc3)CC2)cc1 [Astemizole] | 8.6 ± 2.5% | -76.0% |  |  |  |  |  |  |
| c1ccc2c(c1)Sc1ccccc1N2CC1CN2CCC1CC2 (centres unmarked) [Mequitazine] |  |  | 30% | -51.2% | 3/10 | 30% | -51.2% | 3/10 |
